In the supplement of paper PMC10331698:
± gives the standard deviation of the averaged measurements.

What was measured:
Assay in all cases: level (log10 ratio to DMSO vehicle control); higher = higher biomarker level / cell amount than vehicle control
[1] = compound: OCCCCC(F)(F)C(F)(F)C(F)(F)C(F)(F)F [4:4 Fluorotelomer alcohol]; conditions: in DMSO
Method: (§1)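 BioMAP Diversity Plus panel of 12 human primary cell co-culture systems (3C, 4H, LPS, SAg, BT, BF4T, BE3C, CASM3C, HDF3CGF, KF3CT, MyoF, Mphg). Compounds were added 1 h before stimulation and left for 24 h (MyoF 48 h; BT 72 h for soluble read-outs or 6 d for IgG). Biomarkers were read by ELISA, cytotoxicity by SRB, PBMC viability and proliferation by Alamar Blue. Each well value was divided by the mean of 8 DMSO control wells on the same plate and log10 transformed; duplicate blinded samples were tested at 4 concentrations.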

[2] = compound: O=C(O)C(F)(F)C(F)(F)C(=O)O [Tetrafluorosuccinic acid]; conditions: in DMSO
Method: as §1

[3] = compound: CN(Cc1cnc2nc(N)nc(N)c2n1)c1ccc(C(=O)N[C@@H](CCC(=O)O)C(=O)O)cc1 [Methotrexate]; conditions: in DMSO
Method: as §1

[4] = compound: OCCC(F)(F)C(F)(F)C(F)(F)C(F)(F)C(F)(F)C(F)(F)C(F)(F)C(F)(F)F [8:2 Fluorotelomer alcohol]; conditions: 6700 nM; in DMSO
Method: as §1

[5] = compound: O=C(O)C(F)(F)C(F)(F)C(F)(F)C(F)(F)C(F)(F)C(F)(F)C(F)(F)F [Perfluorooctanoic acid]; conditions: in DMSO
Method: as §1

[6] = compound: FC(F)(F)COC(OCC(F)(F)F)OCC(F)(F)F [tris(Trifluoroethoxy)methane]; conditions: in DMSO
Method: as §1

[7] = compound: OCC(F)(F)C(F)(F)C(F)(F)C(F)(F)C(F)(F)C(F)(F)C(F)(F)C(F)(F)CO [1H,1H,10H,10H-Perfluorodecane-1,10-diol]; conditions: in DMSO
Method: as §1

| Test System | level (log10) ([1]; 6700 nM) | level (log10) ([1]; 20000 nM) | level (log10) ([1]; 60000 nM) | level (log10) ([2]; 6700 nM) | level (log10) ([2]; 20000 nM) | level (log10) ([2]; 60000 nM) | level (log10) ([3]; 1500 nM) | level (log10) ([3]; 4400 nM) | level (log10) ([3]; 13000 nM) | level (log10) ([3]; 40000 nM) | level (log10) [4] | level (log10) ([5]; 6700 nM) | level (log10) ([5]; 20000 nM) | level (log10) ([5]; 60000 nM) | level (log10) ([6]; 6700 nM) | level (log10) ([6]; 20000 nM) | level (log10) ([6]; 60000 nM) | level (log10) ([7]; 6700 nM) | level (log10) ([7]; 20000 nM) | level (log10) ([7]; 60000 nM) |
| --- | --- | --- | --- | --- | --- | --- | --- | --- | --- | --- | --- | --- | --- | --- | --- | --- | --- | --- | --- | --- |
| KF3CT:MMP-9 | -0.011 ± 0.013 | -0.003 ± 0.034 | 0.011 ± 0.021 | -0.0305 ± 0.018 | -0.024 ± 0.031 | -0.0085 ± 0.035 | 0.017 ± 0.013 | -0.001 ± 0.014 | -0.0045 ± 0.04 | 0.0075 ± 0.019 | -0.09 ± 0.027 | -0.0225 ± 0.026 | 0.003 ± 0.0099 | 0.028 ± 0.011 | -0.0015 ± 0.016 | -0.0105 ± 0.00071 | 0.004 ± 0.013 | 0.005 ± 0.03 | 0.0465 ± 0.00071 | -0.197 |
| KF3CT:TIMP-2 | 0.0135 ± 0.0064 | 0.0075 ± 0.019 | -0.0015 ± 0.015 | 0 ± 0.0071 | 0.0365 ± 0.005 | 0.027 ± 0.024 | -0.029 ± 0.035 | -0.034 ± 0.069 | -0.0325 ± 0.06 | -0.0195 ± 0.088 | -0.0175 ± 0.026 | -0.0195 ± 0.015 | 0.0025 ± 0.016 | 0.035 ± 0.038 | -0.0025 ± 0.021 | -0.007 ± 0.011 | -0.0045 ± 0.012 | -0.001 ± 0.011 | 0.011 ± 0.0099 | -0.133 |
| CASM3C:CD87/uPAR | -0.009 ± 0.028 | -0.0135 ± 0.029 | -0.0045 ± 0.025 | -0.01 ± 0.021 | -0.024 ± 0.013 | -0.0185 ± 0.0021 | 0.0385 ± 0.037 | 0.033 ± 0.023 | 0.0585 ± 0.015 | 0.04 ± 0.048 | -0.018 ± 0.054 | -0.049 ± 0.047 | -0.021 ± 0.082 | -0.0035 ± 0.067 | -0.0095 ± 0.018 | -0.007 ± 0.023 | -0.021 ± 0.0085 | -0.024 ± 0.016 | -0.033 ± 0.031 | -0.116 |
